pKi: −log10 of the molar value. Like-named read-outs stand apart in the source and are kept apart here.
How the values were obtained:
JAK1 = JAK1 (Homo sapiens (Human), UniProt P23458); assay: LanthaScreen JAK biochemical assay (JAK1); conditions: for Ki: read-out: JAK 1 (pKi) (converted)
[1] = system: IL-13 induced STAT6 phosphorylation in BEAS-2B human lung epithelial cells; assay: AlphaScreen cellular JAK potency assay, BEAS-2B
JAK2 = JAK2 (Homo sapiens (Human), UniProt O60674); assay: LanthaScreen JAK biochemical assay (JAK2); conditions: for Ki: read-out: JAK 2 (pKi) (converted)
Chain of JAK2 (O60674 whole entry): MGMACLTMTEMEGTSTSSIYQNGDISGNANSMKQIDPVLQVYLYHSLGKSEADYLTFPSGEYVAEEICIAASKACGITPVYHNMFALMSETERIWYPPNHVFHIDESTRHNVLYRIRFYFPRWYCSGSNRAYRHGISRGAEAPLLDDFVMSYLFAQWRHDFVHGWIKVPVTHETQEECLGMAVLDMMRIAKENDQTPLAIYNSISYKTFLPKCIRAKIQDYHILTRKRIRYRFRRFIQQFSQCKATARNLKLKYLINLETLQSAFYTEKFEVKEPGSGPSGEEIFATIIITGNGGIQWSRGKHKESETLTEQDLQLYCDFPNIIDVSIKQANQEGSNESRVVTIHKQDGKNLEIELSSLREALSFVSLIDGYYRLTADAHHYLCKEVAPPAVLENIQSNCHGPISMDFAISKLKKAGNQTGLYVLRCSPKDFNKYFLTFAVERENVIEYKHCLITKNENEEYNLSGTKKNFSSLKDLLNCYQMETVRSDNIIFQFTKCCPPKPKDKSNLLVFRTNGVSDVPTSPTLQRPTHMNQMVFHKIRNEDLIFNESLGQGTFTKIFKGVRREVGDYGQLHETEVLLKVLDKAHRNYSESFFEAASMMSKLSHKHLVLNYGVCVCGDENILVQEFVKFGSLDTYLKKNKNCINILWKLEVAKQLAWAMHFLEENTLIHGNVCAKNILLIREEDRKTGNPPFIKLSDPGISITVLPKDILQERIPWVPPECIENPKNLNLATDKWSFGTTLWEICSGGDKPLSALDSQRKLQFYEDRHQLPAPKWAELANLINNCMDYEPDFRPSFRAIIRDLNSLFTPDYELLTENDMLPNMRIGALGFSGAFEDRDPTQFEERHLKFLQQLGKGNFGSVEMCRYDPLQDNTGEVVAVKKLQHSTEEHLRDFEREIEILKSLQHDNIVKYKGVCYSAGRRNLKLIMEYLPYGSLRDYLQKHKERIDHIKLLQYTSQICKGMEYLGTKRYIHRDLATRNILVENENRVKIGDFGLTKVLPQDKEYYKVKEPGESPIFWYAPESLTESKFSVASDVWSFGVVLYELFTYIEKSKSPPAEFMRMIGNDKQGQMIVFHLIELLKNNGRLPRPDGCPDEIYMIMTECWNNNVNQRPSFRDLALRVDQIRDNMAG

[2] = system: IL-4 induced STAT6 phosphorylation in THP-1 human monocytic cells; assay: Cellular JAK potency assay, THP-1
[3] = IL-13 induced STAT6 phosphorylation, BEAS-2B cells
[4] = IL-4 induced STAT6 phosphorylation, THP-1 cells
[5] = Homo sapiens, BEAS-2B, read-out: BEAS2B pIC50 (converted)
[6] = Homo sapiens, THP-1, read-out: THP-1 IL4 pIC50 (converted)
[7] = BEAS-2B cells, IL-13 induced STAT6 phosphorylation
[8] = THP-1 cells, IL-4 induced STAT6 phosphorylation

Chain of JAK1 (P23458 whole entry): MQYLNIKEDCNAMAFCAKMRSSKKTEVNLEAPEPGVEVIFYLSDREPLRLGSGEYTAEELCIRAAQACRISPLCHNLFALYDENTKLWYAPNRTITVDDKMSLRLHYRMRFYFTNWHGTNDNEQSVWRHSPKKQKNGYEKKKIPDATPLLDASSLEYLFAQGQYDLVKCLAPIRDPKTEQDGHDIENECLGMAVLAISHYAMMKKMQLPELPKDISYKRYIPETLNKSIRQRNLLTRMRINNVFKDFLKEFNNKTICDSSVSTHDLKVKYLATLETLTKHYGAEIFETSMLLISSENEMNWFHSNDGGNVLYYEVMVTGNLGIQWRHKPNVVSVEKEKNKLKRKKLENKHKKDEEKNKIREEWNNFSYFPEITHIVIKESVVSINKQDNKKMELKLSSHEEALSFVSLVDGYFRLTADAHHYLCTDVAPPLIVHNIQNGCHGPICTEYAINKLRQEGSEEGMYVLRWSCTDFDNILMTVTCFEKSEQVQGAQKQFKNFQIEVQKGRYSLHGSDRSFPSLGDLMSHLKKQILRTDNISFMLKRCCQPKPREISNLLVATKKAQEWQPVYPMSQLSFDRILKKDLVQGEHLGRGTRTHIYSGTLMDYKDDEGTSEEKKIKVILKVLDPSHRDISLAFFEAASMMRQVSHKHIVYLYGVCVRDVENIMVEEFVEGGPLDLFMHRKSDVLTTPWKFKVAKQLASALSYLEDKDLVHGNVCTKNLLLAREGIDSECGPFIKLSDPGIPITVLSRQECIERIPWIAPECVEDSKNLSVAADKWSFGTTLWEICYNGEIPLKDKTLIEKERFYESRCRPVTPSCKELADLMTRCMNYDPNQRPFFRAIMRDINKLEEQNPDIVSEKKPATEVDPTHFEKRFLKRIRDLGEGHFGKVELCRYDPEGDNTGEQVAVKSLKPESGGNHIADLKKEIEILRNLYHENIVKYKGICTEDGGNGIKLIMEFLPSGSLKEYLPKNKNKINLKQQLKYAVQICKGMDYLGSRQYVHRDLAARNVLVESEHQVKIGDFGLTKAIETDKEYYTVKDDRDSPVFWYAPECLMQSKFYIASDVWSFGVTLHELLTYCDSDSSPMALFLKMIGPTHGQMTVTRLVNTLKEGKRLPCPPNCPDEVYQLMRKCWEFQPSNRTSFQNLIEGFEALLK

Structure (SMILES)	JAK 1 (pKi) (JAK1)	BEAS2B pIC50 [1, 3]	JAK 2 (pKi) (JAK2)	THP-1 IL4 pIC50 [2, 4]	Ki (JAK1)	IC50 [1, 5]	Ki (JAK2)	IC50 [2, 6]	BEAS2B pIC50 [1, 7]	THP-1 IL4 pIC50 [2, 8]	pKi (JAK1)
Cc1cc(Nc2cc3ncccc3c(N[C@@H]3C[C@H]4CCC[C@@H](C3)N4CCCF)n2)n[nH]1 [Example 1-40]	B (B represents a pKi value between 9 and 10 (Ki between 1 nM and 0.1 nM))	A (A represents a pEC50 value≥7.5 (EC50≤32 nM))	B (B represents a pKi value between 9 and 10 (Ki between 1 nM and 0.1 nM))	A (A represents a pEC50 value≥7.5 (EC50≤32 nM))							
Cc1cc(Nc2cc3ncccc3c(N[C@@H]3C[C@H]4CCC[C@@H](C3)N4CC(C)C)n2)n[nH]1 [Example 1-43]	B (B represents a pKi value between 9 and 10 (Ki between 1 nM and 0.1 nM))	A (A represents a pEC50 value≥7.5 (EC50≤32 nM))	B (B represents a pKi value between 9 and 10 (Ki between 1 nM and 0.1 nM))	A (A represents a pEC50 value≥7.5 (EC50≤32 nM))							
Cc1cc(Nc2cc3ncccc3c(N[C@@H]3C[C@H]4CCC[C@@H](C3)N4CCC(F)(F)F)n2)n[nH]1 [Example 1-44]	B (B represents a pKi value between 9 and 10 (Ki between 1 nM and 0.1 nM))	A (A represents a pEC50 value≥7.5 (EC50≤32 nM))	B (B represents a pKi value between 9 and 10 (Ki between 1 nM and 0.1 nM))	A (A represents a pEC50 value≥7.5 (EC50≤32 nM))							
Cc1cc(Nc2cc3ncccc3c(N[C@@H]3C[C@H]4CC[C@@H](C3)N4S(=O)(=O)C(C)C)n2)n[nH]1 [Example 4-2]					0.1 to 1 nM	< 31.6 nM	0.1 to 1 nM	< 31.6 nM			
CCN1CC(S(=O)(=O)N2[C@@H]3CC[C@H]2C[C@H](Nc2nc(Nc4cc(C)[nH]n4)cc4ncccc24)C3)C1 [Example 4-10]					0.1 to 1 nM	31.6 to 200 nM	0.1 to 1 nM	31.6 to 200 nM			
Cc1cc(Nc2cc3ncccc3c(N[C@@H]3C[C@H]4CC[C@@H](C3)N4S(=O)(=O)c3cncc(F)c3)n2)n[nH]1 [Example 4-15]					0.1 to 1 nM	< 31.6 nM	0.1 to 1 nM	< 31.6 nM			
Cc1cc(Nc2cc3ncccc3c(N[C@@H]3C[C@H]4CCC[C@@H](C3)N4S(=O)(=O)Cc3cccnc3)n2)n[nH]1 [Example 4-26]	B (B represents a pKi value between 9 and 10 (Ki between 1 nM and 0.1 nM))	B (B represents a pEC50 value between 6.7 and 7.5 (EC50 between 200 nM and 32 nM))	B (B represents a pKi value between 9 and 10 (Ki between 1 nM and 0.1 nM))	B (B represents a pEC50 value between 6.7 and 7.5 (EC50 between 200 nM and 32 nM))							
COc1ccc2c(N[C@@H]3C[C@H]4CC[C@@H](C3)N4C(=O)C3(C(F)(F)F)CC3)nc(Nc3cc(C)[nH]n3)cc2n1 [Example 5-6]					0.1 to 1 nM	< 31.6 nM	0.1 to 1 nM	< 31.6 nM			
COc1ccc2c(N[C@@H]3C[C@H]4CCC[C@@H](C3)N4CCC#N)nc(Nc3cc(C)[nH]n3)cc2n1 [Example 5-10]	A (A represents a pKi value≥10 (Ki≤0.1 nM))	A (A represents a pEC50 value≥7.5 (EC50≤32 nM))	A (A represents a pKi value≥10 (Ki≤0.1 nM))	A (A represents a pEC50 value≥7.5 (EC50≤32 nM))							
Cc1cc(Nc2cc3nc(CO)ccc3c(N[C@@H]3C[C@H]4CC[C@@H](C3)N4CCCF)n2)n[nH]1 [Example 5-14]	B (B represents a pKi value between 9 and 10 (Ki between 1 nM and 0.1 nM))	B (B represents a pEC50 value between 6.7 and 7.5 (EC50 between 200 nM and 32 nM))	B (B represents a pKi value between 9 and 10 (Ki between 1 nM and 0.1 nM))	B (B represents a pEC50 value between 6.7 and 7.5 (EC50 between 200 nM and 32 nM))							
Cc1cc(Nc2cc3nc(CN4CCOCC4)ccc3c(N[C@@H]3C[C@H]4CCC[C@@H](C3)N4S(C)(=O)=O)n2)n[nH]1 [Example 5-22]	A (A represents a pKi value≥10 (Ki≤0.1 nM))	A (A represents a pEC50 value≥7.5 (EC50≤32 nM))	A (A represents a pKi value≥10 (Ki≤0.1 nM))	B (B represents a pEC50 value between 6.7 and 7.5 (EC50 between 200 nM and 32 nM))							
Cc1cnc2cc(Nc3cc(C)[nH]n3)nc(N[C@@H]3C[C@H]4CC[C@@H](C3)N4Cc3ccncc3)c2c1 [Example 6-2]	B (B represents a pKi value between 9 and 10 (Ki between 1 nM and 0.1 nM))		B (B represents a pKi value between 9 and 10 (Ki between 1 nM and 0.1 nM))						B (B represents a pEC50 value between 6.7 and 7.5 (EC50 between 200 nM and 32 nM))	A (A represents a pEC50 value≥7.5 (EC50≤32 nM))	
COc1cnc2cc(Nc3cc(C)[nH]n3)nc(N[C@@H]3C[C@H]4CC[C@@H](C3)N4CCC(F)(F)F)c2c1 [Example 6-15]	B (B represents a pKi value between 9 and 10 (Ki between 1 nM and 0.1 nM))		B (B represents a pKi value between 9 and 10 (Ki between 1 nM and 0.1 nM))						A (A represents a pEC50 value≥7.5 (EC50≤32 nM))	A (A represents a pEC50 value≥7.5 (EC50≤32 nM))	
COc1cnc2cc(Nc3cc(C)[nH]n3)nc(N[C@@H]3C[C@H]4CC[C@@H](C3)N4Cc3ccncc3)c2c1 [Example 6-24]	B (B represents a pKi value between 9 and 10 (Ki between 1 nM and 0.1 nM))		B (B represents a pKi value between 9 and 10 (Ki between 1 nM and 0.1 nM))						B (B represents a pEC50 value between 6.7 and 7.5 (EC50 between 200 nM and 32 nM))	B (B represents a pEC50 value between 6.7 and 7.5 (EC50 between 200 nM and 32 nM))	
COc1cnc2cc(Nc3cc(C)[nH]n3)nc(N[C@@H]3C[C@H]4CCC[C@@H](C3)N4Cc3ccncc3)c2c1 [Example 6-28]	B (B represents a pKi value between 9 and 10 (Ki between 1 nM and 0.1 nM))		B (B represents a pKi value between 9 and 10 (Ki between 1 nM and 0.1 nM))						A (A represents a pEC50 value≥7.5 (EC50≤32 nM))	A (A represents a pEC50 value≥7.5 (EC50≤32 nM))	
CCS(=O)(=O)N1[C@@H]2CC[C@H]1C[C@H](Nc1nc(Nc3cc(C)[nH]n3)cc3nccc(OC)c13)C2 [Example 7-2]					0.1 to 1 nM	< 31.6 nM	0.1 to 1 nM	< 31.6 nM			
COc1ccnc2cc(Nc3cc(C)[nH]n3)nc(N[C@@H]3C[C@H]4CC[C@@H](C3)N4CCC#N)c12 [Example 7-6]	B (B represents a pKi value between 9 and 10 (Ki between 1 nM and 0.1 nM))		B (B represents a pKi value between 9 and 10 (Ki between 1 nM and 0.1 nM))						B (B represents a pEC50 value between 6.7 and 7.5 (EC50 between 200 nM and 32 nM))	A (A represents a pEC50 value≥7.5 (EC50≤32 nM))	
COc1ccnc2cc(Nc3cc(C)[nH]n3)nc(N[C@@H]3C[C@H]4CC[C@@H](C3)N4CC(F)(F)F)c12 [Example 7-9]						< 31.6 nM	0.1 to 1 nM	< 31.6 nM			9.00 to 10.00
Cc1cc(Nc2nc(N[C@@H]3C[C@H]4CC[C@@H](C3)N4Cc3ccncc3)c3cccnc3c2F)n[nH]1 [Example 8-6]	B (B represents a pKi value between 9 and 10 (Ki between 1 nM and 0.1 nM))		B (B represents a pKi value between 9 and 10 (Ki between 1 nM and 0.1 nM))						B (B represents a pEC50 value between 6.7 and 7.5 (EC50 between 200 nM and 32 nM))	B (B represents a pEC50 value between 6.7 and 7.5 (EC50 between 200 nM and 32 nM))	
Cc1cc(Nc2nc(N[C@@H]3C[C@H]4CCC[C@@H](C3)N4S(C)(=O)=O)c3cccnc3c2F)n[nH]1 [Example 8-10]	A (A represents a pKi value≥10 (Ki≤0.1 nM))		A (A represents a pKi value≥10 (Ki≤0.1 nM))						A (A represents a pEC50 value≥7.5 (EC50≤32 nM))	A (A represents a pEC50 value≥7.5 (EC50≤32 nM))	
Cc1cc(Nc2nc(N[C@@H]3C[C@H]4CCC[C@@H](C3)N4S(=O)(=O)c3cccnc3)c3cccnc3c2F)n[nH]1 [Example 8-12]	B (B represents a pKi value between 9 and 10 (Ki between 1 nM and 0.1 nM))		B (B represents a pKi value between 9 and 10 (Ki between 1 nM and 0.1 nM))						A (A represents a pEC50 value≥7.5 (EC50≤32 nM))	A (A represents a pEC50 value≥7.5 (EC50≤32 nM))	

Source: US10072026B2, “Crystalline form of 3-((1R,3s,5S)-3-((7-((5-methyl-1H-pyrazol-3-yl)amino)-1,6-naphthyridin-5-yl)amino)-8-azabicyclo[3.2.1]octan-8-yl)propanenitrile” (priority 2015, dated 2018)
